Measurements taken from ChEMBL document CHEMBL1125293 (J Med Chem, 1992).

target: T1, Substance-P receptor (Rattus norvegicus, UniProt P14600); test: Inhibition of [125]I-Bolton Hunter Substance P([125]I-BHSP) binding to Tachykinin receptor 1 from rat forebrain membranes.; assay type: cell membranes, Membrane
T1 sequence (P14600 whole entry): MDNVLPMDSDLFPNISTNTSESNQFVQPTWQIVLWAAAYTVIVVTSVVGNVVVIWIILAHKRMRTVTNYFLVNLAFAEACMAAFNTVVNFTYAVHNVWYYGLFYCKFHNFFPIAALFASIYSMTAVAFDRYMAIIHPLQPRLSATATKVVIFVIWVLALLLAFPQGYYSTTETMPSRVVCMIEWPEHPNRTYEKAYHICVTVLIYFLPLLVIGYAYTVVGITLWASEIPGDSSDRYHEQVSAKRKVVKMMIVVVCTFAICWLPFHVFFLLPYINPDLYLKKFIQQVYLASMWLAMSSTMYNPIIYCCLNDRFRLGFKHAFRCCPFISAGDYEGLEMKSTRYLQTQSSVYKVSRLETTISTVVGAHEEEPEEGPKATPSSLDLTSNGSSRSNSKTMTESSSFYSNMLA

How did the IC50 turn out when `CC#C[C@]1(O)CCC2C3CCC4Cc5nc6nc7ccccc7n6cc5C[C@]4(C)C3CC[C@@]21C` (stereo not given in full) was run?
The IC50 was 0.18 µM.

How did the IC50 turn out when `CC(C)CCCC(C)[C@@H]1CCC2C3CCC4Cc5nc6nc7ccccc7n6cc5C[C@]4(C)C3CC[C@@]21C` (stereo not given in full) was run?
Its IC50 is greater than 10 µM.

Which IC50 does the source give for `C[C@]12Cc3cn4c(nc3CC1CCC1C2CC[C@@]2(C)C1CC[C@@]2(O)c1ccccc1)nc1ccccc14` (stereo not given in full) here?
The IC50 was greater than 10 µM.

How did the IC50 turn out when `C#CC[C@]1(O)CCC2C3CCC4Cc5nc6nc7ccccc7n6cc5C[C@]4(C)C3CC[C@@]21C` (stereo not given in full) was run?
The IC50 was 0.32 µM.

`c1ccc2c(c1)nc1nc3c(cn12)CCCC3` was tested. Which IC50 did it give?
The IC50 was greater than 10 µM.

With `C[C@]12Cc3cn4c(nc3CC1CCC1C2CC[C@]2(C)C(=O)CCC12)nc1ccccc14` (stereo not given in full) as the molecule, how does the IC50 read?
The IC50 was greater than 10 µM.

Which IC50 does the source give for `COC(=O)[C@H]1CCC2C3CCC4Cc5nc6nc7ccccc7n6cc5C[C@]4(C)C3CC[C@@]21C` (stereo not given in full) here?
The IC50 was greater than 10 µM.

How did the IC50 turn out when `C[C@]12CCC3C(CC[C@@H]4Cc5nc6nc7ccccc7n6cc5C[C@]34C)C1CC[C@@H]2O` (stereo not given in full) was run?
The IC50 was greater than 10 µM.

target: T1, Substance-P receptor; assay type: cell membranes, Membrane

`C#C[C@]1(O)CCC2C3CC[C@H]4Cc5nc6nc7cc8ccccc8cc7n6cc5C[C@]4(C)C3CC[C@@]21C` (stereo not given in full) was tested. Which IC50 did it give?
The IC50 was 0.32 µM.

Which IC50 does the source give for `C[C@]12Cc3cn4c(nc3CC1CCC1C2CC[C@@]2(C)C1CC[C@@H]2O)nc1ccccc14` (stereo not given in full) here?
Its IC50 is 0.22 µM.

`C=C[C@]1(O)CCC2C3CCC4Cc5nc6nc7ccccc7n6cc5C[C@]4(C)C3CC[C@@]21C` (stereo not given in full) was tested. Which IC50 did it give?
The IC50 was 0.086 µM.

With `C[C@]12Cc3cn4c(nc3CC1CCC1C2CC[C@@]2(C)C1CC[C@]2(C)O)nc1ccccc14` (stereo not given in full) as the molecule, how does the IC50 read?
The IC50 was 0.2 µM.

Which IC50 does the source give for `C#C[C@]1(O)CCC2C3CC[C@H]4Cc5nc6cc7ccccc7n6cc5C[C@]4(C)C3CC[C@@]21C` (stereo not given in full) here?
The IC50 was greater than 10 µM.

With `CC(CCC(=O)O)[C@H]1CCC2C3C(C[C@H](O)[C@@]21C)[C@@]1(C)Cc2cn4c(nc2CC1C[C@H]3O)nc1ccccc14` (stereo not given in full) as the molecule, how does the IC50 read?
The IC50 was greater than 10 µM.

Which IC50 does the source give for `C#C[C@]1(O)CCC2C3CC[C@H]4Cc5nc6[nH]c7ccccc7c6cc5C[C@]4(C)C3CC[C@@]21C` (stereo not given in full) here?
Its IC50 is greater than 10 µM.

With `COC(=O)CCC(C)[C@H]1CCC2C3C(C[C@H](O)[C@@]21C)[C@@]1(C)Cc2cn4c(nc2CC1C[C@H]3O)nc1ccccc14` (stereo not given in full) as the molecule, how does the IC50 read?
Its IC50 is greater than 2.5 µM.

How did the IC50 turn out when `C#C[C@]1(OC)CCC2C3CCC4Cc5nc6nc7ccccc7n6cc5C[C@]4(C)C3CC[C@@]21C` (stereo not given in full) was run?
The IC50 was greater than 10 µM.

How did the IC50 turn out when `Cc1cc(C)n2c(n1)nc1ccccc12` was run?
The IC50 was greater than 10 µM.

Which IC50 does the source give for `C=CC1=CCCC2Cc3nc4nc5ccccc5n4cc3C[C@]12C` (stereo not given in full) here?
The IC50 was greater than 10 µM.

With `C[C@@]12CCCC1C1CCC3Cc4nc5nc6ccccc6n5cc4C[C@]3(C)C1CC2` (stereo not given in full) as the molecule, how does the IC50 read?
Its IC50 is greater than 10 µM.
